Measured values reported in patent US20240101544A1, “INHIBITORS OF QPCTL AND QPCT” (priority 2022, published 2024).
pIC50: −log10 of the molar value.

Legend:
QPCT (rhQPCT) = QPCT (rhQPCT) (Homo sapiens (Human), UniProt Q16769); test: QPCT Enzymatic Activity Assay (coupled-enzyme fluorescent assay, H-Gln-AMC substrate); assay type: biochemical; details: rhQPCT 10-12 nM, 10 μM H-Gln-AMC; read-out: QPCT Inhibition IC50
Method in brief: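 Coupled assay: recombinant human QPCT converts H-Gln-AMC (10 μM final) to pyroglutamyl-AMC, 60 min at 37 °C, stopped by boiling; PGPEP-1 then releases AMC.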

QPCTL [1] = molecular target: T1, QPCTL (Homo sapiens (Human), UniProt Q9NXS2); test: QPCTL Enzymatic Activity Assay (coupled-enzyme fluorescent assay, H-Gln-AMC substrate); assay type: biochemical; details: recombinant truncated human QPCTL 10-12 nM, 10 μM H-Gln-AMC; read-out: QPCTL Inhibition IC50
Target sequence in this assay (Q9NXS2 53-382): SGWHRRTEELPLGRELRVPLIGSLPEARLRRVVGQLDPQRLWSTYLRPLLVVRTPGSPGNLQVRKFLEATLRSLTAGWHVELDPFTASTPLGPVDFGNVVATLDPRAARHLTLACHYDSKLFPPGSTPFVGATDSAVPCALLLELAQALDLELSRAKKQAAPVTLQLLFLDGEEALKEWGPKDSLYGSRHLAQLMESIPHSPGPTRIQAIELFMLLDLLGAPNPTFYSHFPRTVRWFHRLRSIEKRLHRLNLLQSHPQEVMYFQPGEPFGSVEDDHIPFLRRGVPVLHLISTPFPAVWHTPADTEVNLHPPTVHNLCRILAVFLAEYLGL

QPCTL [2] = molecular target: T1, QPCTL; test: Inhibition of Cellular QPCTL Activity - Imaging Assay, CC2C6 anti-CD47 staining of DLD-1 cells; assay type: cell-based; details: 72 hours, CC2C6 anti-CD47 high-content imaging
Method: Inhibition of Cellular QPCTL Activity—Imaging Assay
The cells were incubated for 72 hours at 37° C. and 5% CO2. […] After primary antibody staining, the cells were fixed with 4% paraformaldehyde in the incubation buffer for 15 minutes at room temperature. […] Cells were analyzed on a ImageXpress Pico Automated Cell Imaging System (Molecular Devices) using 10× objective (3×3 fields).
Target sequence in this assay (Q9NXS2 whole entry, the tested form may be a part): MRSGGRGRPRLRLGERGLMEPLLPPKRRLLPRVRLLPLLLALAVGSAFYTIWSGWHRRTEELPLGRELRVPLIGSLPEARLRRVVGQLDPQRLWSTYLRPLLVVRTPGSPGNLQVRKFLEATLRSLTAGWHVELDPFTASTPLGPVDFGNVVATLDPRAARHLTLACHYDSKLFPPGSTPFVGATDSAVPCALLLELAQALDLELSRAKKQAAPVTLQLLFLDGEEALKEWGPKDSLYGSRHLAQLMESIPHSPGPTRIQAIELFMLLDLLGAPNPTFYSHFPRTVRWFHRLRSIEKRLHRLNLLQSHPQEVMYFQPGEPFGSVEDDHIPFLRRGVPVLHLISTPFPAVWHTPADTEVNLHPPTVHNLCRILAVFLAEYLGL

QPCT (rhQPCT), sequence (Q16769 29-361): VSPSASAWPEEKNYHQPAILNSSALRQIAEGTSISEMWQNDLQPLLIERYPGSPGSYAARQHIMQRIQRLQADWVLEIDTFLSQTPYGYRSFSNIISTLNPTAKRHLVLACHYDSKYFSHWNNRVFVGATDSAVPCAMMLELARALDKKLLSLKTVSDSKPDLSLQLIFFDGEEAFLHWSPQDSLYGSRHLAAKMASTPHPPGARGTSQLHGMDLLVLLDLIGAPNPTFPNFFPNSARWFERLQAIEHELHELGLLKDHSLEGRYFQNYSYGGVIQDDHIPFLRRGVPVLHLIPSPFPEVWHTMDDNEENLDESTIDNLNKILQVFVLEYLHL

pIC50 (QPCT (rhQPCT)) | pIC50 (QPCTL [1]) | pIC50 (QPCTL [2]) | SMILES
> 7.00 | > 7.00 | 6.00 to 7.00 | CN(C)C(=O)c1ccc(-c2ccc(F)nc2)c(N2CCC(c3nncn3C)CC2)c1C#N [Example 79, 2-cyano-4-(6-fluoropyridin-3-yl)-N,N-dimethyl-3-(4-(4-methyl-4H-1,2,4-triazol-3-yl)piperidin-1-yl)benzamide]
> 7.00 | > 7.00 | > 7.00 | CN1CCN(c2ccc(-c3ccc(F)nc3)c(N3CCC(c4nncn4C)CC3)c2C#N)CC1 [Example 80, 3-(6-fluoropyridin-3-yl)-2-(4-(4-methyl-4H-1,2,4-triazol-3-yl)piperidin-1-yl)-6-(4-methylpiperazin-1-yl)benzonitrile]
> 7.00 | > 7.00 | > 7.00 | Cn1cnnc1C1CCN(c2c(-c3ccc(F)nc3)ccc(NC3CC3)c2C#N)CC1 [Example 81, 6-(cyclopropylamino)-3-(6-fluoropyridin-3-yl)-2-(4-(4-methyl-4H-1,2,4-triazol-3-yl)piperidin-1-yl)benzonitrile]
> 7.00 | > 7.00 | 5.00 to 6.00 | CNCCOc1ccc(-c2ccc(F)nc2)c(N2CCC(c3nncn3C)CC2)c1C#N [Example 82, 3-(6-fluoropyridin-3-yl)-2-(4-(4-methyl-4H-1,2,4-triazol-3-yl)piperidin-1-yl)-6-(2-(methylamino)ethoxy)benzonitrile]
> 7.00 | > 7.00 | 5.00 to 6.00 | CNCCN(C)c1ccc(-c2ccc(F)nc2)c(N2CCC(c3nncn3C)CC2)c1C#N [Example 83, 3-(6-fluoropyridin-3-yl)-6-(methyl(2-(methylamino)ethyl)amino)-2-(4-(4-methyl-4H-1,2,4-triazol-3-yl)piperidin-1-yl)benzonitrile]
> 7.00 | > 7.00 | < 5.00 | Cn1cnnc1C1CCN(c2c(-c3ccc(F)nc3)ccc(NS(C)(=O)=O)c2C#N)CC1 [Example 84, N-(2-cyano-4-(6-fluoropyridin-3-yl)-3-(4-(4-methyl-4H-1,2,4-triazol-3-yl)piperidin-1-yl)phenyl)methanesulfonamide]

The remaining lines, values behind:

SMILES | pIC50 (QPCT (rhQPCT)) | pIC50 (QPCTL [1]) | pIC50 (QPCTL [2])
Cn1cnnc1C1CCN(c2c(C#N)cc(C(F)(F)F)cc2-c2ccc(F)nc2)CC1 [Example 70, 3-(6-fluoropyridin-3-yl)-2-(4-(4-methyl-4H-1,2,4-triazol-3-yl)piperidin-1-yl)-5-(trifluoromethyl)benzonitrile] | > 7.00 | > 7.00 | > 7.00
Cn1cnnc1C1CCN(c2c(-c3ccc(F)nc3)ccc(F)c2C#N)CC1 [Example 71, 6-fluoro-3-(6-fluoropyridin-3-yl)-2-(4-(4-methyl-4H-1,2,4-triazol-3-yl)piperidin-1-yl)benzonitrile] | > 7.00 | > 7.00 | > 7.00
Cn1cnnc1C1CCN(c2c(-c3ccc(F)nc3)ccc(-c3cn[nH]c3)c2C#N)CC1 [Example 73, 3-(6-fluoropyridin-3-yl)-2-(4-(4-methyl-4H-1,2,4-triazol-3-yl)piperidin-1-yl)-6-(1H-pyrazol-4-yl)benzonitrile] | > 7.00 | > 7.00 | > 7.00
Cn1cnnc1C1CCN(c2c(-c3ccc(F)nc3)ccc(OC3CC3)c2C#N)CC1 [Example 76, 6-cyclopropoxy-3-(6-fluoropyridin-3-yl)-2-(4-(4-methyl-4H-1,2,4-triazol-3-yl)piperidin-1-yl)benzonitrile] | > 7.00 | > 7.00 | > 7.00
Cn1cnnc1C1CCN(c2c(-c3ccc(F)nc3)ccc(OCC3CC3)c2C#N)CC1 [Example 77, 6-(cyclopropylmethoxy)-3-(6-fluoropyridin-3-yl)-2-(4-(4-methyl-4H-1,2,4-triazol-3-yl)piperidin-1-yl)benzonitrile] | > 7.00 | > 7.00 | > 7.00
Cn1cnnc1C1CCN(c2c(-c3ccc(F)nc3)ccc(N)c2C#N)CC1 [Example 78, 6-amino-3-(6-fluoropyridin-3-yl)-2-(4-(4-methyl-4H-1,2,4-triazol-3-yl)piperidin-1-yl)benzonitrile] | > 7.00 | > 7.00 | > 7.00
